Reference: patent US20200361908A1, “CRYSTALS OF ANILINE PYRIMIDINE COMPOUND SERVING AS EGFR INHIBITOR” (CHIA TAI TIANQING PHARMACEUTICAL GROUP CO., LTD., priority 2016, published 2020)
Blank lines part the entries; values can stand above or below the molecule they belong to.

Legend:
[1] = Stability test of crystal A at room temperature, kept away from light; assay type: physicochemical
Procedure: (§1) The stability of the crystal according to the present application may be detected by placing the crystal under a condition with a high temperature, a high humidity, or a lighting condition. The high temperature condition may be 40° C. to 60° C., the high humidity condition may be a relative humidity of 75% to 92.5% RH, and the lighting condition may be 5000 Lux. The crystal stability may be evaluated by investigating several parameters, such as the content of the crystal, the total content of impurities, or the water content, of a sample, and comprehensively evaluating these parameters according to the properties of the product.
The crystal A obtained by Method 1 of Example 3 was kept away from light at room temperature, and sampled for detection in months 1.5, 2, 5, and 6, respectively.

[2] = Stability test of crystal B under high temperature, high humidity or illumination; assay type: physicochemical
Procedure: as §1
The crystal B obtained by Method 5 of Example 4 was kept respectively in an environment at a high temperature of 60° C., a high humidity of 75% RH, a high humidity of 92.5% RH, or an illumination intensity of 5000 Lux, and sampled for detection on days 5, 10, and 30, respectively.

Characters ([1]; Initial Result): off-white
Content (%) ([1]; Initial Result): 100.3%
Total Impurity (%) ([1]; Initial Result): 1.11%
Characters ([1]; Month 1.5): off-white
Content (%) ([1]; Month 1.5): 100.5%
Total Impurity (%) ([1]; Month 1.5): 1.52%
Characters ([1]; Month 2): off-white
Total Impurity (%) ([1]; Month 2): 1.23%
Characters ([1]; Month 5): off-white
Content (%) ([1]; Month 5): 100%
Total Impurity (%) ([1]; Month 5): 1.5%
Characters ([1]; Month 6): off-white
Content (%) ([1]; Month 6): 99.8%
Total Impurity (%) ([1]; Month 6): 1.37%
SMILES: C=CC(=O)Nc1cc(Nc2nccc(-n3c(=O)n(C)c4ccccc43)n2)c(OC)cc1N(C)CCN(C)C [crystal A]

Characters ([2]; Day 0): white
Content (%) ([2]; Day 0): 99.3%
Total Impurity (%) ([2]; Day 0): 0.12%
Characters ([2]; High Humidity 75% RH, Day 5): white
Content (%) ([2]; High Humidity 75% RH, Day 5): 99.3%
Characters ([2]; High Humidity 75% RH, Day 10): white
Content (%) ([2]; High Humidity 75% RH, Day 10): 103.6%
Total Impurity (%) ([2]; High Humidity 75% RH, Day 10): 0.07%
Characters ([2]; High Humidity 75% RH, Day 30): off-white
Content (%) ([2]; High Humidity 75% RH, Day 30): 106.4%
Total Impurity (%) ([2]; High Humidity 75% RH, Day 30): 0.06%
Characters ([2]; High Humidity 92.5% RH, Day 5): white
Content (%) ([2]; High Humidity 92.5% RH, Day 5): 98.4%
Characters ([2]; High Humidity 92.5% RH, Day 10): white
Content (%) ([2]; High Humidity 92.5% RH, Day 10): 105.2%
Total Impurity (%) ([2]; High Humidity 92.5% RH, Day 10): 0.06%
Characters ([2]; High Humidity 92.5% RH, Day 30): off-white
Content (%) ([2]; High Humidity 92.5% RH, Day 30): 103.9%
Total Impurity (%) ([2]; High Humidity 92.5% RH, Day 30): 0.07%
Characters ([2]; High Temp. 60° C., Day 5): white
Content (%) ([2]; High Temp. 60° C., Day 5): 100.5%
Characters ([2]; High Temp. 60° C., Day 10): white
Content (%) ([2]; High Temp. 60° C., Day 10): 104.2%
Total Impurity (%) ([2]; High Temp. 60° C., Day 10): 0.09%
Characters ([2]; High Temp. 60° C., Day 30): off-white
Content (%) ([2]; High Temp. 60° C., Day 30): 107.9%
Total Impurity (%) ([2]; High Temp. 60° C., Day 30): 0.19%
Characters ([2]; Illumination 5000 Lux, Day 5): white
Content (%) ([2]; Illumination 5000 Lux, Day 5): 99.4%
Total Impurity (%) ([2]; Illumination 5000 Lux, Day 5): 0.06%
Characters ([2]; Illumination 5000 Lux, Day 10): white
Content (%) ([2]; Illumination 5000 Lux, Day 10): 106.9%
Total Impurity (%) ([2]; Illumination 5000 Lux, Day 10): 0.14%
Characters ([2]; Illumination 5000 Lux, Day 30): off-white
Content (%) ([2]; Illumination 5000 Lux, Day 30): 107.9%
Total Impurity (%) ([2]; Illumination 5000 Lux, Day 30): 0.37%
SMILES: C=CC(=O)Nc1cc(Nc2nccc(-n3c(=O)n(C)c4ccccc43)n2)c(OC)cc1N(C)CCN(C)C [crystal B]
